According to patent US10781204B2, “TYK2 inhibitors and uses thereof” (Nimbus Lakshmi, Inc., priority 2015, dated 2020):

Experiments:
[1] = tested on: Tyk2-pSTAT4 (IL-12 induced pSTAT4); assay: IL-12 induced pSTAT4 in human PBMC; assay type: cell-based; details: 1.7 ng/mL IL-12, 30 minutes
Method in brief: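 pSTAT4 and total STAT4 quantified by MSD in cell lysates after 30 minutes of 1.7 ng/mL IL-12 stimulation. Beforehand, compound (0.1% DMSO final) sat 1 hr at 37 C on 200,000 thawed buffy-coat PBMC per well in serum-containing medium.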

[2] = tested on: JAK2-pSTAT5 (GM-CSF induced pSTAT5); assay: GM-CSF induced pSTAT5 in human PBMC; assay type: cell-based; details: Homo sapiens, PBMC, 20 min, 5 ng/mL GM-CSF
Method in brief: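 Thawed human PBMC, 200,000 per well in serum-containing medium, were preincubated 1 hr at 37 C with compound in 0.1% DMSO. GM-CSF at 5 ng/mL final was added for 20 minutes, then pSTAT5 and total STAT5 in lysates were measured by MSD immunoassay.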

JAK2 = JAK2 (Homo sapiens (Human), UniProt O60674); assay: JAK2 radioactive kinase assay; assay type: biochemical; details: ATP 10 μM
Chain of JAK2 (O60674 whole entry): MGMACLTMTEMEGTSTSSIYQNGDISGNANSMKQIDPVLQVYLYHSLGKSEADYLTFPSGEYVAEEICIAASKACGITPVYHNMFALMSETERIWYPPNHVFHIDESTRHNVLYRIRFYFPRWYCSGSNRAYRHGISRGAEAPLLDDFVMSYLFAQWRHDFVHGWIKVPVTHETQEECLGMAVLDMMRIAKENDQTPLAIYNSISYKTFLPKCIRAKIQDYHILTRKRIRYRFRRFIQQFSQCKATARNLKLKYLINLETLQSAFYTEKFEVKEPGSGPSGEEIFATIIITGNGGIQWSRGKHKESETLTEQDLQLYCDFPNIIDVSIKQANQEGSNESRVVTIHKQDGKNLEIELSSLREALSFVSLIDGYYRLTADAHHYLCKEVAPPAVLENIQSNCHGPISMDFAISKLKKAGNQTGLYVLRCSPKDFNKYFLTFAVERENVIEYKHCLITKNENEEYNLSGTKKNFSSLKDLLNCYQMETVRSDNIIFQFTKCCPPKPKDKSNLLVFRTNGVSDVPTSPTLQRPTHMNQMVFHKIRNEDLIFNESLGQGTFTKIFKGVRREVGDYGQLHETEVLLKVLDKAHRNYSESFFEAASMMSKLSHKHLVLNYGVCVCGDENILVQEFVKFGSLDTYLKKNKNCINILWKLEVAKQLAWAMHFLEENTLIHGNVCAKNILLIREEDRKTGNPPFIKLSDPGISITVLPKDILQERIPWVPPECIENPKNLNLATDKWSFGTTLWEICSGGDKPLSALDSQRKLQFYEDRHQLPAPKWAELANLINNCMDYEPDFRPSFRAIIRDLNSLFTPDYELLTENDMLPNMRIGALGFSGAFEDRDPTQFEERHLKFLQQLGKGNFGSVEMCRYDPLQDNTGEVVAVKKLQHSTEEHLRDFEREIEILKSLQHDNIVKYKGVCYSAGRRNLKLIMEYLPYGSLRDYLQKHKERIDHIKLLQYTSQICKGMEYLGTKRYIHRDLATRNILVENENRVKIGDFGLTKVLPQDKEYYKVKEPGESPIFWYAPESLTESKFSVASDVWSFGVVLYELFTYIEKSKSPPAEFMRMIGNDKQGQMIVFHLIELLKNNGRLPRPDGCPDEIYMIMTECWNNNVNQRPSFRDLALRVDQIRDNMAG
Method in brief: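 Radiometric assay in Hepes pH 7.5, MgCl2, EGTA, Brij35, BSA, DTT, 1% DMSO, with 10 μM [33P]ATP, 120 min at room temp; P81 paper capture and counting. […]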

TYK2 = TYK2 (Homo sapiens (Human), UniProt P29597); assay: Tyk2 radioactive kinase assay; assay type: biochemical; details: ATP 10 μM
Chain of TYK2 (P29597 whole entry): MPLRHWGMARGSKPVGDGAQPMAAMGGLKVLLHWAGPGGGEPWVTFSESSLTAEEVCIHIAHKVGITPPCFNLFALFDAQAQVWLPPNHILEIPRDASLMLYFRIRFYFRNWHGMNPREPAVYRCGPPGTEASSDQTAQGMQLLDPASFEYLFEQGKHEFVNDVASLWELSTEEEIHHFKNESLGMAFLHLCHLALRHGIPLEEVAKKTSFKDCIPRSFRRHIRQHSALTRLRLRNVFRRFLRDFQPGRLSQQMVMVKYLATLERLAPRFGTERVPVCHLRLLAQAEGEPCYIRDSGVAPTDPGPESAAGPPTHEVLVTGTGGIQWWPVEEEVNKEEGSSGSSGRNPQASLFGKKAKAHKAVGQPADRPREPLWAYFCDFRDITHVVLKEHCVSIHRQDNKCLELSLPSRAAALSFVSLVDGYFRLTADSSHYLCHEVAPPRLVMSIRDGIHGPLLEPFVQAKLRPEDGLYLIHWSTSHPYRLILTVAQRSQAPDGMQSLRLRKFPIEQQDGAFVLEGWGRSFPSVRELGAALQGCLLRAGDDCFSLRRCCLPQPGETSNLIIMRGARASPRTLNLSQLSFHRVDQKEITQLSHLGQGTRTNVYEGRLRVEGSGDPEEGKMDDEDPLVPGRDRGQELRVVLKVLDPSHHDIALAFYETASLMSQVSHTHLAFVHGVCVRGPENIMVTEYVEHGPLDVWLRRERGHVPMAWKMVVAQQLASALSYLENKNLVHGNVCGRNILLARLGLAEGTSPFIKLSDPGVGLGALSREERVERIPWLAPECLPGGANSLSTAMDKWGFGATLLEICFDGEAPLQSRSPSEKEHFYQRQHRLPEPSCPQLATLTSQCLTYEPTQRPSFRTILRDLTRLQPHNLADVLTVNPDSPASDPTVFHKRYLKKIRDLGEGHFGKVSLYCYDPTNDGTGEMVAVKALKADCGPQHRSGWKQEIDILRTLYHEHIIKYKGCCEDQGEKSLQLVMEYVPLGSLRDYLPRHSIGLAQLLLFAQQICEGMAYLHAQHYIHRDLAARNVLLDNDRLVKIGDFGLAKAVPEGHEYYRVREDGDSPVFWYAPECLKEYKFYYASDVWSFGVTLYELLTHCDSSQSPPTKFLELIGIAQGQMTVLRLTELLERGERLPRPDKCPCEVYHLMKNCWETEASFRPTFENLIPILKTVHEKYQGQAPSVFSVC
Method in brief: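 Recombinant human TYK2 (Invitrogen) was mixed with 20 μM peptide substrate in a buffer of 20 mM Hepes pH 7.5, 10 mM MgCl2, 1 mM EGTA, 0.02% Brij35, 0.02 mg/mL BSA, 0.1 mM […], 2 mM DTT and 1% DMSO, and compounds in DMSO were added. Adding ^33P-ATP (10 μM ATP) started the reaction, which ran 120 min at room temperature. Mixtures were then spotted onto P81 ion-exchange paper, washed thoroughly in 0.75% phosphoric acid, and counted for radioactivity.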

EC50 ([1]; Homo sapiens, PBMC, 0.5 h) [nM]	EC50 [2] [nM]	Ki (JAK2) [nM]	Ki (TYK2) [nM]	EC50 [1] [nM]	Compound
100 to 2000	> 2000	10 to 100	0.1 to 10	–	CC(=O)N[C@@H]1CCCN(c2ccn(-c3cc(-c4c(F)cccc4C#N)nc4c3C(=O)NC4)n2)C1 [I-129, (R)-N-(1-(1-(2-(2-cyano-6-fluorophenyl)-5-oxo-6,7-dihydro-5H-pyrrolo[3,4-b]pyridin-4-yl)-1H-pyrazol-3-yl)piperidin-3-yl)acetamide]
100 to 2000	100 to 2000	10 to 100	0.1 to 10	–	CC(=O)N[C@H]1CCCN(c2ccn(-c3cc(-c4c(F)cccc4C#N)nc4c3C(=O)NC4)n2)C1 [I-130, (S)-N-(1-(1-(2-(2-cyano-6-fluorophenyl)-5-oxo-6,7-dihydro-5H-pyrrolo[3,4-b]pyridin-4-yl)-1H-pyrazol-3-yl)piperidin-3-yl)acetamide]
30 to 100	> 2000	10 to 100	0.1 to 10	–	N#Cc1cccc(F)c1-c1cc(-n2ccc(N3CCOC[C@@H](O)C3)n2)c2c(n1)CNC2=O [I-131, (S)-3-fluoro-2-(4-(3-(6-hydroxy-1,4-oxazepan-4-yl)-1H-pyrazol-1-yl)-5-oxo-6,7-dihydro-5H-pyrrolo[3,4-b]pyridin-2-yl)benzonitrile]
100 to 2000	> 2000	0.1 to 10	0.1 to 10	–	CS(=O)(=O)N[C@H]1CCN(c2ccn(-c3cc(-c4c(F)cccc4C#N)nc4c3C(=O)NC4)n2)C1 [I-135, (S)-N-(1-(1-(2-(2-cyano-6-fluorophenyl)-5-oxo-6,7-dihydro-5H-pyrrolo[3,4-b]pyridin-4-yl)-1H-pyrazol-3-yl)pyrrolidin-3-yl)methanesulfonamide]
30 to 100	> 2000	0.1 to 10	0.009 to 0.1	–	N#Cc1cccc(F)c1-c1cc(-n2ccc(N3CC[C@H](O)[C@H](O)C3)n2)c2c(n1)CNC2=O [I-136, 2-(4-(3-((3R,4S)-3,4-dihydroxypiperidin-1-yl)-1H-pyrazol-1-yl)-5-oxo-6,7-dihydro-5H-pyrrolo[3,4-b]pyridin-2-yl)-3-fluorobenzonitrile]
–	> 2000	0.1 to 10	0.1 to 10	100 to 2000	N#Cc1cccc(F)c1-c1cc(-n2ccc(N3CC[C@@H](O)[C@@H](O)C3)n2)c2c(n1)CNC2=O [I-137, 2-(4-(3-((3S,4R)-3,4-dihydroxypiperidin-1-yl)-1H-pyrazol-1-yl)-5-oxo-6,7-dihydro-5H-pyrrolo[3,4-b]pyridin-2-yl)-3-fluorobenzonitrile]
100 to 2000	100 to 2000	10 to 100	0.1 to 10	–	N#Cc1cccc(F)c1-c1cc(-n2ccc(N3CCCC3=O)n2)c2c(n1)CNC2=O [I-139, 3-fluoro-2-(5-oxo-4-(3-(2-oxopyrrolidin-1-yl)-1H-pyrazol-1-yl)-6,7-dihydro-5H-pyrrolo[3,4-b]pyridin-2-yl)benzonitrile]
100 to 2000	100 to 2000	0.1 to 10	0.009 to 0.1	–	N#Cc1cccc(F)c1-c1cc(-n2ccc(N3CCNC(=O)CC3)n2)c2c(n1)CNC2=O [I-141, 3-fluoro-2-(5-oxo-4-(3-(5-oxo-1,4-diazepan-1-yl)-1H-pyrazol-1-yl)-6,7-dihydro-5H-pyrrolo[3,4-b]pyridin-2-yl)benzonitrile]
30 to 100	100 to 2000	0.1 to 10	0.009 to 0.1	–	[2H]C1([2H])C[C@H](O)C([2H])([2H])N1c1ccn(-c2cc(-c3c(F)cccc3C#N)nc3c2C(=O)NC3)n1 [I-142, (S)-3-fluoro-2-(4-(3-(3-hydroxypyrrolidin-1-yl-2,2,5,5-d4)-1H-pyrazol-1-yl)-5-oxo-6,7-dihydro-5H-pyrrolo[3,4-b]pyridin-2-yl)benzonitrile]
100 to 2000	100 to 2000	10 to 100	0.1 to 10	–	CN1CCN(C2CCCN(c3ccn(-c4cc(-c5c(F)cccc5C#N)nc5c4C(=O)NC5)n3)C2)CC1 (stereo not drawn) [I-147, 3-fluoro-2-(4-(3-(3-(4-methylpiperazin-1-yl)piperidin-1-yl)-1H-pyrazol-1-yl)-5-oxo-6,7-dihydro-5H-pyrrolo[3,4-b]pyridin-2-yl)benzonitrile]
> 2000	> 2000	≥ 1000	10 to 100	–	N#Cc1cccc(F)c1-c1cc(-n2ccc(N3CC[C@H](O)C3=O)n2)c2c(n1)CNC2=O [I-148, (S)-3-fluoro-2-(4-(3-(3-hydroxy-2-oxopyrrolidin-1-yl)-1H-pyrazol-1-yl)-5-oxo-6,7-dihydro-5H-pyrrolo[3,4-b]pyridin-2-yl)benzonitrile]
100 to 2000	100 to 2000	0.1 to 10	0.009 to 0.1	–	N#Cc1cccc(F)c1-c1cc(-n2ccc(N3CCCC(N4CCOCC4)C3)n2)c2c(n1)CNC2=O (stereo not drawn) [I-149, 3-fluoro-2-(4-(3-(3-morpholinopiperidin-1-yl)-1H-pyrazol-1-yl)-5-oxo-6,7-dihydro-5H-pyrrolo[3,4-b]pyridin-2-yl)benzonitrile]
30 to 100	> 2000	0.1 to 10	0.009 to 0.1	–	C[C@H]1[C@H](O)CCN1c1ccn(-c2cc(-c3c(F)cccc3C#N)nc3c2C(=O)NC3)n1 [I-150, 3-fluoro-2-(4-(3-((2S,3R)-3-hydroxy-2-methylpyrrolidin-1-yl)-1H-pyrazol-1-yl)-5-oxo-6,7-dihydro-5H-pyrrolo[3,4-b]pyridin-2-yl)benzonitrile]
100 to 2000	> 2000	100 to 1000	0.1 to 10	–	CC(C)c1ccn(-c2cc(-c3c(F)cccc3C#N)nc3c2C(=O)NC3)n1 [I-151, 3-fluoro-2-(4-(3-isopropyl-1H-pyrazol-1-yl)-5-oxo-6,7-dihydro-5H-pyrrolo[3,4-b]pyridin-2-yl)benzonitrile]
100 to 2000	> 2000	0.1 to 10	0.1 to 10	–	N#Cc1cccc(F)c1-c1cc(-n2ccc(N3CCCC(C(=O)N4CCCC4)C3)n2)c2c(n1)CNC2=O (stereo not drawn) [I-152, 3-fluoro-2-(5-oxo-4-(3-(3-(pyrrolidine-1-carbonyl)piperidin-1-yl)-1H-pyrazol-1-yl)-6,7-dihydro-5H-pyrrolo[3,4-b]pyridin-2-yl)benzonitrile]
100 to 2000	> 2000	10 to 100	0.1 to 10	–	CN1CCN([C@H]2CCCN(c3ccn(-c4cc(-c5c(F)cccc5C#N)nc5c4C(=O)NC5)n3)C2)CC1 [I-155, (S)-3-fluoro-2-(4-(3-(3-(4-methylpiperazin-1-yl)piperidin-1-yl)-1H-pyrazol-1-yl)-5-oxo-6,7-dihydro-5H-pyrrolo[3,4-b]pyridin-2-yl)benzonitrile]
100 to 2000	100 to 2000	10 to 100	0.1 to 10	–	CN1CCN([C@@H]2CCCN(c3ccn(-c4cc(-c5c(F)cccc5C#N)nc5c4C(=O)NC5)n3)C2)CC1 [I-156, (R)-3-fluoro-2-(4-(3-(3-(4-methylpiperazin-1-yl)piperidin-1-yl)-1H-pyrazol-1-yl)-5-oxo-6,7-dihydro-5H-pyrrolo[3,4-b]pyridin-2-yl)benzonitrile]
100 to 2000	> 2000	10 to 100	0.1 to 10	–	N#Cc1cccc(F)c1-c1cc(-n2ccc(N3CCC[C@H](N4CCOCC4)C3)n2)c2c(n1)CNC2=O [I-157, (S)-3-fluoro-2-(4-(3-(3-morpholinopiperidin-1-yl)-1H-pyrazol-1-yl)-5-oxo-6,7-dihydro-5H-pyrrolo[3,4-b]pyridin-2-yl)benzonitrile]
100 to 2000	> 2000	10 to 100	0.1 to 10	–	N#Cc1cccc(F)c1-c1cc(-n2ccc(N3CCC[C@@H](N4CCOCC4)C3)n2)c2c(n1)CNC2=O [I-158, (R)-3-fluoro-2-(4-(3-(3-morpholinopiperidin-1-yl)-1H-pyrazol-1-yl)-5-oxo-6,7-dihydro-5H-pyrrolo[3,4-b]pyridin-2-yl)benzonitrile]
100 to 2000	> 2000	10 to 100	0.1 to 10	–	CCNC(=O)C1CCCN(c2ccn(-c3cc(-c4c(F)cccc4C#N)nc4c3C(=O)NC4)n2)C1 (stereo not drawn) [I-159, 1-(1-(2-(2-cyano-6-fluorophenyl)-5-oxo-6,7-dihydro-5H-pyrrolo[3,4-b]pyridin-4-yl)-1H-pyrazol-3-yl)-N-ethylpiperidine-3-carboxamide]
100 to 2000	100 to 2000	10 to 100	0.1 to 10	–	CC1O[C@H]2CN(c3ccn(-c4cc(-c5c(F)cccc5C#N)nc5c4C(=O)NC5)n3)C[C@H]2O1 (stereo partly drawn) [I-161, 3-fluoro-2-(4-(3-((3aR,6aS)-2-methyltetrahydro-5H-[1,3]dioxolo-[4,5-c]pyrrol-5-yl)-1H-pyrazol-1-yl)-5-oxo-6,7-dihydro-5H-pyrrolo[3,4-b]pyridin-2-yl)benzonitrile]
